Like-named read-outs stand apart in the source and are kept apart here.
Assays:
[1] = type: physicochemical; conditions: for % assay/degs / Total degs / pH: T = 0
Description: For each condition, samples were staged at ambient and refrigerated conditions. Samples were analyzed for % assay/degs, appearance, reconstitution time, pH, and compared to T=0. The structures of the key impurities/metabolites are shown below.

[2] = In use testing of reconstituted solutions in IV bags and IV tubings; type: physicochemical
Excerpt: The IV bags and IV tubings were sampled over time and tested for % assay/degradation.

[3] = tested on: SARS-CoV2-Nano viruses; experiment: SARS-CoV-2 antiviral screening (A549-hACE2 cells, Nano luciferase); type: cell-based; conditions: Severe acute respiratory syndrome coronavirus 2, 48 h
[4] = in vivo; parameters: species or system African Green Monkeys; conditions: monkey, iv, 10 mg/kg
[5] = Nebulizer performance (PARI LC Sprint jet nebulizer); type: physicochemical; conditions: 5 mg/mL Formula Ia, 15% w/v SBECD, 8 mL charge; collected aerosol and residual solution
[6] = in vivo; conditions: both, monkey, inhaled or intranasal
Description: The average deposited dose was calculated at 0.168 mg/kg and 0.536 mg/kg, respectively. Plasma, peripheral blood mononuclear cells (PBMCs), trachea, bronchi, lung lobe, liver, kidney, nasal mucosa and nasopharyngeal mucosa samples were collected in this study.

## CCC(CC)COC(=O)[C@H](C)N[P@](=O)(OC[C@H]1O[C@@](C#N)(c2ccc3c(N)ncnn23)[C@H](O)[C@@H]1O)Oc1ccccc1 [Formula Ia, (S)-2-ethylbutyl 2-(((S)-(((2R,3S,4R,5R)-5-(4-aminopyrrolo[2,1-f][1,2,4]triazin-7-yl)-5-cyano-3,4-dihydroxytetrahydrofuran-2-yl)methoxy)(phenoxy)phosphoryl)amino)propanoate]
[1]; pH 1.8, 2-8° C., 2 h
  % assay/degs, difference from T = 0: 0.0%
  Total degs, difference from T = 0: 0.0%
  pH, difference from T = 0: 0.0
[1]; pH 1.8, 2-8° C., 3 h
  % assay/degs, difference from T = 0: −0.2%
  Total degs, difference from T = 0: 0.0%
  pH, difference from T = 0: 0.0
[1]; pH 1.8, 2-8° C., 8 h
  % assay/degs, difference from T = 0: −0.2%
  Total degs, difference from T = 0: 0.1%
  pH, difference from T = 0: 0.0
[1]; pH 1.8, 2-8° C., 24 h
  % assay/degs, difference from T = 0: −0.5%
  Total degs, difference from T = 0: 0.2%
  pH, difference from T = 0: 0.0
[1]; pH 1.8, 2-8° C., 48 h
  % assay/degs, difference from T = 0: −0.2%
  Total degs, difference from T = 0: 0.4%
  pH, difference from T = 0: 0.0
[1]; pH 1.8, Ambient, 1 h
  % assay/degs, difference from T = 0: −0.3%
  Total degs, difference from T = 0: 0.0%
  pH, difference from T = 0: 0.0
[1]; pH 1.8, Ambient, 2 h
  % assay/degs, difference from T = 0: −0.1%
  Total degs, difference from T = 0: 0.1%
  pH, difference from T = 0: 0.0
[1]; pH 1.8, Ambient, 3 h
  % assay/degs, difference from T = 0: −0.3%
  Total degs, difference from T = 0: 0.1%
  pH, difference from T = 0: 0.0
[1]; pH 1.8, Ambient, 8 h
  % assay/degs, difference from T = 0: −0.4%
  Total degs, difference from T = 0: 0.4%
  pH, difference from T = 0: 0.0
[1]; pH 1.8, Ambient, 24 h
  % assay/degs, difference from T = 0: −1.3%
  Total degs, difference from T = 0: 1.2%
  pH, difference from T = 0: 0.0
[1]; pH 1.8, Ambient, 48 h
  % assay/degs, difference from T = 0: −3.5%
  Total degs, difference from T = 0: 2.4%
  pH, difference from T = 0: 0.0
[1]; pH 1.8
  % assay/degs: 99.4%
  Total degs: 0.2%
  pH: 1.8
[1]; pH 2.0, 2-8° C., 2 h
  % assay/degs, difference from T = 0: 0.6%
  Total degs, difference from T = 0: 0.0%
  pH, difference from T = 0: 0.0
[1]; pH 2.0, 2-8° C., 3 h
  % assay/degs, difference from T = 0: 0.2%
  Total degs, difference from T = 0: 0.0%
  pH, difference from T = 0: 0.0
[1]; pH 2.0, 2-8° C., 8 h
  % assay/degs, difference from T = 0: −0.1%
  Total degs, difference from T = 0: 0.1%
  pH, difference from T = 0: 0.0
[1]; pH 2.0, 2-8° C., 24 h
  % assay/degs, difference from T = 0: 0.2%
  Total degs, difference from T = 0: 0.1%
  pH, difference from T = 0: 0.0
[1]; pH 2.0, 2-8° C., 48 h
  % assay/degs, difference from T = 0: −0.5%
  Total degs, difference from T = 0: 0.3%
  pH, difference from T = 0: 0.0
[1]; pH 2.0, Ambient, 1 h
  % assay/degs, difference from T = 0: 0.1%
  Total degs, difference from T = 0: 0.0%
  pH, difference from T = 0: 0.0
[1]; pH 2.0, Ambient, 2 h
  % assay/degs, difference from T = 0: −0.2%
  Total degs, difference from T = 0: 0.1%
  pH, difference from T = 0: 0.0
[1]; pH 2.0, Ambient, 3 h
  % assay/degs, difference from T = 0: 0.3%
  Total degs, difference from T = 0: 0.1%
  pH, difference from T = 0: 0.0
[1]; pH 2.0, Ambient, 8 h
  % assay/degs, difference from T = 0: −0.2%
  Total degs, difference from T = 0: 0.2%
  pH, difference from T = 0: 0.0
[1]; pH 2.0, Ambient, 24 h
  % assay/degs, difference from T = 0: −0.6%
  Total degs, difference from T = 0: 0.8%
  pH, difference from T = 0: 0.0
[1]; pH 2.0, Ambient, 48 h
  % assay/degs, difference from T = 0: −1.8%
  Total degs, difference from T = 0: 1.6%
  pH, difference from T = 0: 0.0
[1]; pH 2.0
  % assay/degs: 99.2%
  Total degs: 0.2%
  pH: 2.0
[1]; pH 3.5, 2-8° C., 2 h
  % assay/degs, difference from T = 0: 0.6%
  Total degs, difference from T = 0: 0.0%
  pH, difference from T = 0: 0.0
[1]; pH 3.5, 2-8° C., 8 h
  % assay/degs, difference from T = 0: 0.3%
  Total degs, difference from T = 0: 0.0%
  pH, difference from T = 0: 0.0
[1]; pH 3.5, 2-8° C., 24 h
  % assay/degs, difference from T = 0: 0.7%
  Total degs, difference from T = 0: 0.0%
  pH, difference from T = 0: −0.1
[1]; pH 3.5, 2-8° C., 48 h
  % assay/degs, difference from T = 0: 0.5%
  Total degs, difference from T = 0: 0.0%
  pH, difference from T = 0: 0.0
[1]; pH 3.5, 2-8° C., 72 h
  % assay/degs, difference from T = 0: 0.7%
  Total degs, difference from T = 0: 0.0%
  pH, difference from T = 0: −0.1
[1]; pH 3.5, 2-8° C., 96 h
  % assay/degs, difference from T = 0: 0.2%
  Total degs, difference from T = 0: 0.0%
  pH, difference from T = 0: 0.0
[1]; pH 3.5, 2-8° C., 168 h
  % assay/degs, difference from T = 0: 0.6%
  Total degs, difference from T = 0: 0.0%
  pH, difference from T = 0: 0.0
[1]; pH 3.5, Ambient, 2 h
  % assay/degs, difference from T = 0: 0.6%
  Total degs, difference from T = 0: 0.0%
  pH, difference from T = 0: 0.0
[1]; pH 3.5, Ambient, 8 h
  % assay/degs, difference from T = 0: 0.2%
  Total degs, difference from T = 0: 0.0%
  pH, difference from T = 0: 0.0
[1]; pH 3.5, Ambient, 24 h
  % assay/degs, difference from T = 0: 0.6%
  Total degs, difference from T = 0: 0.0%
  pH, difference from T = 0: 0.0
[1]; pH 3.5, Ambient, 48 h
  % assay/degs, difference from T = 0: 0.3%
  Total degs, difference from T = 0: 0.1%
  pH, difference from T = 0: 0.0
[1]; pH 3.5, Ambient, 72 h
  % assay/degs, difference from T = 0: 0.2%
  Total degs, difference from T = 0: 0.1%
  pH, difference from T = 0: −0.1
[1]; pH 3.5, Ambient, 96 h
  % assay/degs, difference from T = 0: 0.0%
  Total degs, difference from T = 0: 0.1%
  pH, difference from T = 0: 0.0
[1]; pH 3.5, Ambient, 168 h
  % assay/degs, difference from T = 0: 0.2%
  Total degs, difference from T = 0: 0.2%
  pH, difference from T = 0: 0.0
[1]; pH 3.5
  % assay/degs: 99.1%
  Total degs: 0.1%
  pH: 3.5
[1]; pH 3.8, 2-8° C., 7.2 h
  % assay/degs, difference from T = 0: −0.2%
  Total degs, difference from T = 0: 0.0%
  pH, difference from T = 0: −0.1
[1]; pH 3.8, 2-8° C., 24 h
  % assay/degs, difference from T = 0: 0.3%
  Total degs, difference from T = 0: 0.0%
  pH, difference from T = 0: 0.0
[1]; pH 3.8, 2-8° C., 96 h
  % assay/degs, difference from T = 0: 0.1%
  Total degs, difference from T = 0: 0.0%
  pH, difference from T = 0: −0.1
[1]; pH 3.8, 2-8° C., 168 h
  % assay/degs, difference from T = 0: 0.1%
  Total degs, difference from T = 0: 0.0%
  pH, difference from T = 0: −0.1
[1]; pH 3.8, Ambient, 7.2 h
  % assay/degs, difference from T = 0: 0.0%
  Total degs, difference from T = 0: 0.0%
  pH, difference from T = 0: 0.0
[1]; pH 3.8, Ambient, 24 h
  % assay/degs, difference from T = 0: 0.4%
  Total degs, difference from T = 0: 0.0%
  pH, difference from T = 0: 0.0
[1]; pH 3.8, Ambient, 96 h
  % assay/degs, difference from T = 0: 0.0%
  Total degs, difference from T = 0: 0.1%
  pH, difference from T = 0: −0.1
[1]; pH 3.8, Ambient, 168 h
  % assay/degs, difference from T = 0: 0.0%
  Total degs, difference from T = 0: 0.1%
  pH, difference from T = 0: −0.1
[1]; pH 3.8
  % assay/degs: 98.7%
  Total degs: 0.1%
  pH: 3.8
[1]; pH 4.0, 2-8° C., 7.2 h
  % assay/degs, difference from T = 0: 0.0%
  Total degs, difference from T = 0: 0.0%
  pH, difference from T = 0: 0.0
[1]; pH 4.0, 2-8° C., 24 h
  % assay/degs, difference from T = 0: 0.3%
  Total degs, difference from T = 0: 0.0%
  pH, difference from T = 0: 0.0
[1]; pH 4.0, 2-8° C., 96 h
  % assay/degs, difference from T = 0: 0.2%
  Total degs, difference from T = 0: 0.0%
  pH, difference from T = 0: 0.0
[1]; pH 4.0, 2-8° C., 168 h
  % assay/degs, difference from T = 0: 0.6%
  Total degs, difference from T = 0: 0.0%
  pH, difference from T = 0: −0.1
[1]; pH 4.0, Ambient, 7.2 h
  % assay/degs, difference from T = 0: 0.3%
  Total degs, difference from T = 0: 0.0%
  pH, difference from T = 0: 0.0
[1]; pH 4.0, Ambient, 24 h
  % assay/degs, difference from T = 0: 0.3%
  Total degs, difference from T = 0: 0.0%
  pH, difference from T = 0: 0.0
[1]; pH 4.0, Ambient, 96 h
  % assay/degs, difference from T = 0: 0.0%
  Total degs, difference from T = 0: 0.1%
  pH, difference from T = 0: 0.0
[1]; pH 4.0, Ambient, 168 h
  % assay/degs, difference from T = 0: −0.2%
  Total degs, difference from T = 0: 0.1%
  pH, difference from T = 0: −0.1
[1]; pH 4.0
  % assay/degs: 98.6%
  Total degs: 0.1%
  pH: 4.0
[2]; 0 h, 0.3 mg/mL
  Total degradation: 0.2 % w/w
[2]; 0 h, 2 mg/mL
  Total degradation: 0.2 % w/w
[2]; 4 h, 0.3 mg/mL
  Total degradation: 0.2 % w/w
[2]; 4 h, 2 mg/mL
  Total degradation: 0.2 % w/w
[2]; 6 h, 0.3 mg/mL
  Total degradation: 0.2 % w/w
[2]; 6 h, 2 mg/mL
  Total degradation: 0.2 % w/w
[2]; 8 h, 0.3 mg/mL
  Total degradation: 0.2 % w/w
[2]; 8 h, 2 mg/mL
  Total degradation: 0.2 % w/w
[2]; 24 h, 0.3 mg/mL
  Total degradation: 0.2 % w/w
[2]; 24 h, 2 mg/mL
  Total degradation: 0.2 % w/w
[2]; 48 h, 0.3 mg/mL
  Total degradation: 0.2 % w/w
[2]; 48 h, 2 mg/mL
  Total degradation: 0.2 % w/w
[3]
  EC50: 110 nM
[4]
  AUC(0-t): 7.26 µM·h
[5]
  change in % peak area for Formula Ia or its identified impurities after nebulization: No significant change
[6]; 0.168 mg/kg
  AUC(0-t): 0.023 ± 0.008 µM·h
  Cmax: 39 ± 14 nM
  Tmax: 0.52 h
[6]; 0.536 mg/kg
  AUC(0-t): 0.146 ± 0.045 µM·h
  Cmax: 101 ± 19 nM
  Tmax: 1.53 h
